The test system of data set [1] is coronary blood flow of the isolated heart. The data set is described as follows: Coronary vasodilating activity: Langendorff's method, coronary blood flow of isolated heart (Experiment 3). On the set-up: species or system guinea pig. Particulars: isolated guinea pig heart, Langendorff; Table 2. How it is done:
(§1) For example, when the cerebral vasodilating activity is evaluated by examining vertebral artery blood flow in anesthetized dogs to which a test compound is intraarterially administered, said activity of (+)-cis-2-(4-methoxyphenyl)-3-(2-chloro-4-nitrobenzoyloxy)-5-[2-(dimethylamino)ethyl]-2,3-dihydro-1,5-benzothiazepin-4-(5H)-one fumarate is 4.5 times stronger than that of papaverine. On the other hand, the coronary vasodilating activity of (+)-cis-2-(4-methoxyphenyl)-3-(2-chloro-4-nitrobenzoyloxy)-5-[2-(dimethylamino)ethyl]-2,3-dihydro-1,5-benzothiazepin-4(5H)-one fumarate when examined by the Langendorff method using isolated hearts of guinea pigs is 10 times stronger than that of papaverine.
Langendorff's method was used for testing the effect on the coronary blood flow of the isolated heart of guinea pig (about 280 g). The isolated heart was perfused with Locke-Ringer solution containing 2% of defibrinated rabbit blood, which had been saturated with a mixed gas of 95% O2 and 5% CO2 (30° C.). Perfusion pressure was kept at 40 cm H2 O. A solution of a test compound in an aqueous 5% glucose solution was injected into the perfusing solution at a volume of 0.1 ml per heart. The outflow of the perfusate was measured by means of a drop counter.
The coronary vasodilating activity of the test compound was expressed as "±" if the increase in coronary blood flow is less than 0.5 ml/minute at a dose of 100 μg/heart; "+" if the increase is not less than 0.5 ml/minute at a dose of 100 μg/heart; "++" if the increase is not less than 0.5 ml/minute at a dose of 30 μg/heart; and "+++" if the increase is not less than 0.5 ml/minute at a dose of not more than 10 μg/heart.

For data set [2], the system named is vertebral artery blood flow. The data set is described as follows: Cerebral vasodilating activity: vertebral artery blood flow in anesthetized dogs, injection into vertebral artery (Experiment 1). The data set is classed as in vivo. As to conditions: anesthetized male dogs, injected into vertebral artery; Table 1. How it is done:
as §1
(Cerebral vasodilating activity)
Male dogs weighing 10 to 20 kg were anesthetized with sodium pentobarbital (30 mg/kg, intravenous injection). The blood flow in vertebral artery was measured continuously by means of an electromagnetic flowmeter under artificial respiration. A test compound dissolved in an aqueous 5% glucose solution was injected into vertebral artery. The cerebral vasodilating activity of the test compound was estimated in terms of "the potency ratio of said compound to papaverin" which was calculated from the dose-responsecurves thereof.

The target in data set [3] is calmodulin (Homo sapiens, UniProt P0DP23). The data set is described as follows: Anti-calmodulin activity: activation of phosphodiesterase activity by calmodulin (Experiment 5). It is filed as biochemical. Particulars: pH 7.5, 30° C.; Table 4; read-out: ID50 (concentration for 50% inhibition of the activation of phosphodiesterase activity by calmodulin).
Data set [4] relates to cerebral and/or coronary vasodilating activity. Particulars: Japanese Patent Publication Nos. 43784/1971 and 8544/1972; cited from earlier work.
In data set [5] the test system is platelet aggregation. The data set is described as follows: Platelet aggregation-inhibiting activity, collagen, platelet-rich plasma (Experiment 4). The data set is classed as cell-based, Sprague-Dawley rats. On the set-up: key: -: the test compound showed less than 10% inhibition of platelet aggregation; +: the test compound showed not less than 10% inhibition of platelet aggregation but said percentage inhibition was lower than that of acetylsalicylic acid (100 μg/ml); ++: the test compound showed the platelet aggregation-inhibiting activity at least as strong as that of acetylsalicylic acid (100 μg/ml). Particulars: final concentration 100 μg/ml, rat PRP, 37° C., Table 3. An excerpt:
Blood was collected from the abdominal aorta of male Sprague-Dawley rats which were anesthetized with ether. Nine volumes of said blood were mixed with one volume of an aqueous 3.8% (w/v) trisodium citrate solution, and the mixture was centrifuged to give platelet-rich plasma ("PRP") as the supernatant solution. The bottom layer was further centrifuged to give platelet-poor plasma ("PPP") as the supernatant solution. Platelet counts were adjusted to 0.8-1×10^6 /mm^3 for PRP by dilution with PPP. After a mixture of 200 μl of the diluted PRP and 25 μl of a test compound solution (final concentration: 100 μg/ml) was stirred for 2 minutes at 37° C., 25 μl of a collagen solution (Biochim. Biophys. Acta, 186, page 254(1969)) were added thereto. The degree of platelet aggregation was estimated by Born's method (Nature, 194, page 927(1962)) and percentage inhibition of platelet aggregation was calculated therefrom.

For data set [6], the system named is atrioventricular conduction. As to conditions: known calcium-antagonistic vasodilator; cited from earlier work.

Structures can show the parent of a compound that is named as a salt.

On to `COc1ccc([C@@H]2Sc3ccccc3N(CCN(C)C)C(=O)[C@@H]2OC(=O)c2ccc([N+](=O)[O-])cc2)cc1.O=C(O)/C=C\C(=O)O` (racemic) [(±)-cis-2-(4-methoxyphenyl)-3-(4-nitrobenzoyloxy)-5-[2-(dimethylamino)ethyl]-2,3-dihydro-1,5-benzothiazepin-4(5H)-one maleate], for which the “Coronary vasodilating activity (class)” value in data set [1] is reported as “+++ (the increase is not less than 0.5 ml/minute at a dose of not more than 10 μg/heart)”. On to `COc1ccc([C@@H]2Sc3ccccc3N(CCN(C)C)C(=O)[C@@H]2OC(=O)c2ccc(Cl)c([N+](=O)[O-])c2)cc1.O=C(O)C(=O)O` [(+)-cis-2-(4-methoxyphenyl)-3-(4-chloro-3-nitrobenzoyloxy)-5-[2-(dimethylamino)ethyl]-2,3-dihydro-1,5-benzothiazepin-4(5H)-one oxalate], for which, in data set [2], the “Cerebral vasodilating activity (potency ratio to papaverin, class)” value is given as “+++ (the potency ratio is not less than 3)”. For the same molecule, in data set [3], the IC50 amounted to 1400 nM. Consider `COc1ccc(C2Sc3ccccc3N(CCN(C)C)C(=O)C2OC(=O)c2ccccc2)cc1` (stereo not drawn) [2-(4-methoxyphenyl)-3-benzoyloxy-5-[2-(dimethylamino)ethyl]-2,3-dihydro-1,5-benzothiazepin-4(5H)-one], for which the “coronary vasodilating activity (known)” value in data set [4] is given as “have a coronary vasodilating activity”.

Regarding `COc1ccc([C@@H]2Sc3ccccc3N(CCN(C)C)C(=O)[C@@H]2OC(=O)c2ccc([N+](=O)[O-])cc2)cc1.O=C(O)/C=C/C(=O)O` [(+)-cis-2-(4-methoxyphenyl)-3-(4-nitrobenzoyloxy)-5-[2-(dimethylamino)ethyl]-2,3-dihydro-1,5-benzothiazepin-4(5H)-one fumarate], the “Coronary vasodilating activity (class)” value in data set [1] is “+++ (the increase is not less than 0.5 ml/minute at a dose of not more than 10 μg/heart)”. Moreover, the “Platelet aggregation-inhibiting activity (class)” value in data set [5] is “++”. For the same molecule, the “Cerebral vasodilating activity (potency ratio to papaverin, class)” value in data set [2] is reported as “+++ (the potency ratio is not less than 3)”. Further, in data set [3], the IC50 came out at 4500 nM.

For the molecule `COc1ccc([C@@H]2Sc3ccccc3N(CCN(C)C)C(=O)[C@@H]2OC(=O)c2ccc(Cl)cc2[N+](=O)[O-])cc1.Cl` [(+)-cis-2-(4-methoxyphenyl)-3-(4-chloro-2-nitrobenzoyloxy)-5-[2-(dimethylamino)ethyl]-2,3-dihydro-1,5-benzothiazepin-4(5H)-one hydrochloride], the “Coronary vasodilating activity (class)” value in data set [1] is recorded as “+++ (the increase is not less than 0.5 ml/minute at a dose of not more than 10 μg/heart)”. In data set [2], the “Cerebral vasodilating activity (potency ratio to papaverin, class)” value was “+++ (the potency ratio is not less than 3)”.

With `CCN(CC)CCN1C(=O)[C@H](OC(=O)c2ccc([N+](=O)[O-])cc2Cl)[C@H](c2ccc(OC)cc2)Sc2ccccc21.Cl` [(+)-cis-2-(4-methoxyphenyl)-3-(2-chloro-4-nitrobenzoyloxy)-5-[2-(diethylamino)ethyl]-2,3-dihydro-1,5-benzothiazepin-4(5H)-one hydrochloride], in data set [2], the “Cerebral vasodilating activity (potency ratio to papaverin, class)” value is recorded as “+++ (the potency ratio is not less than 3)”. Besides, the IC50 in data set [3] was found to be 2100 nM.

`CCN(C)CCN1C(=O)[C@H](OC(=O)c2ccc([N+](=O)[O-])cc2Cl)[C@H](c2ccc(OC)cc2)Sc2ccccc21` [(+)-cis-2-(4-methoxyphenyl)-3-(2-chloro-4-nitrobenzoyloxy)-5-[2-(N-methyl-N-ethylamino)ethyl]-2,3-dihydro-1,5-benzothiazepin-4(5H)-one oxalate]: in data set [3], the IC50 stood at 2100 nM. Consider `COc1ccc(CCN(C)CCCC(C#N)(c2ccc(OC)c(OC)c2)C(C)C)cc1OC` (stereo not drawn) [verapamil, 5-[(3,4-dimethoxyphenethyl)methylamino]-2-(3,4-dimethoxyphenyl)-2-isopropylvaleronitrile], for which the “effect on atrioventricular conduction (known)” value in data set [6] is on record as “inhibits atrioventricular conduction to cause the prolongation of atrioventricular conduction time”. For the molecule `COc1ccc([C@@H]2Sc3ccccc3N(CCN(C)C)C(=O)[C@@H]2OC(=O)c2ccc([N+](=O)[O-])c(C)c2)cc1.Cl` [(+)-cis-2-(4-methoxyphenyl)-3-(3-methyl-4-nitrobenzoyloxy)-5-[2-(dimethylamino)ethyl]-2,3-dihydro-1,5-benzothiazepin-4(5H)-one hydrochloride], the “Coronary vasodilating activity (class)” value in data set [1] is “+++ (the increase is not less than 0.5 ml/minute at a dose of not more than 10 μg/heart)”. Moreover, the “Platelet aggregation-inhibiting activity (class)” value in data set [5] is given as “++”. Further, the “Cerebral vasodilating activity (potency ratio to papaverin, class)” value in data set [2] was “+++ (the potency ratio is not less than 3)”. Also, in data set [3], the IC50 turned out to be 2500 nM. As to `COc1ccc([C@@H]2Sc3ccccc3N(CCN(C)C)C(=O)[C@@H]2OC(=O)c2ccc([N+](=O)[O-])c(OC)c2)cc1` [(+)-cis-2-(4-methoxyphenyl)-3-(3-methoxy-4-nitrobenzoyloxy)-5-[2-(dimethylamino)ethyl]-2,3-dihydro-1,5-benzothiazepin-4(5H)-one methanesulfonate], the IC50 in data set [3] was 2700 nM. On to `COc1ccc(C2Sc3ccccc3N(CCN(C)C)C(=O)C2OCc2ccccc2)cc1` (stereo not drawn) [2-(4-methoxyphenyl)-3-benzyloxy-5-[2-(dimethylamino)ethyl]-2,3-dihydro-1,5-benzothiazepin-4(5H)-one], for which the “coronary vasodilating activity (known)” value in data set [4] is listed as “have a coronary vasodilating activity”.

As to `COc1ccc([C@@H]2Sc3ccccc3N(CCN(C)C)C(=O)[C@@H]2OC(=O)c2ccccc2[N+](=O)[O-])cc1.Cl` (racemic) [(±)-cis-2-(4-methoxyphenyl)-3-(2-nitrobenzoyloxy)-5-[2-(dimethylamino)ethyl]-2,3-dihydro-1,5-benzothiazepin-4(5H)-one hydrochloride], in data set [5], the “Platelet aggregation-inhibiting activity (class)” value was “++”.

These data come from patent US4521430A, “1,5-Benzothiazepin-4-one, their pharmaceutical compositoins, and methods of use” (Tanabe Seiyaku Co., Ltd., priority 1983, dated 1985).
